According to PubChem BioAssay (NCI):
Values joined by “and” are separate entries in the source; they are usually repeats but may differ in a detail not shown here. Equal entries are not always repeated.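 Cells were grown in 96-well plates and exposed to each compound for 48 hours at five concentrations; endpoints were interpolated linearly between bracketing concentrations, or set to the highest concentration if not reached. GI50: concentration for 50% inhibition of growth. TGI denotes the concentration required for complete inhibition of growth.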

How the values were obtained:
Test in all cases: DTP human tumour cell line panel, 48 h
MDA-N = test system: MDA-N
M19-MEL melanoma = test system: M19-MEL melanoma
DMS 114 small cell lung = test system: DMS 114 small cell lung
DLD-1 colon = test system: DLD-1 colon
HOP-18 NSCLC = test system: HOP-18 NSCLC
DMS 273 small cell lung = test system: DMS 273 small cell lung
LXFL 529 NSCLC = test system: LXFL 529 NSCLC
XF 498 CNS = test system: XF 498 CNS
RXF-631 renal = test system: RXF-631 renal

Row | Structure (SMILES) | TGI (MDA-N) [µM] | TGI (M19-MEL melanoma) [µM] | TGI (DMS 114 small cell lung) [µM] | TGI (DLD-1 colon) [µM] | TGI (HOP-18 NSCLC) [µM] | TGI (DMS 273 small cell lung) [µM] | TGI (LXFL 529 NSCLC) | TGI (XF 498 CNS) [µM] | further results
1 | C=C(C)C12OC1[C@@]1(C)C(=CC2=O)CCC(O)[C@@H]1C (stereo partly specified) | 17.3 |  |  |  |  |  |  |  | 
2 | NC(N)=NS(=O)(=O)c1ccc(N=Nc2c(O)c(C(=O)O)cc3ccccc23)cc1 | > 100 |  |  |  |  |  |  |  | 
3 | N#CCCC[Si]12OCCN(CCO1)CCO2 |  | > 100 | > 100 | > 100 | > 100 | > 100 | > 100 µM |  | 
4 | CN1C(=O)C(=O)N2c3ccc(Cl)cc3C3(c4ccccc4)N=CC12O3 (stereo unspecified) |  | 13.7 | 11.6 | 10.3 | 34.6 | 16.4 | 10.2 µM | 12.3 | 
5 | Cc1[cH-]c(=O)n(-c2ccccc2)n1.[Au+].[Au].c1ccc([PH+](c2ccccc2)c2ccccc2)cc1.c1ccc([PH+](c2ccccc2)c2ccccc2)cc1 |  | > 100 | 11.6 | 41.5 | 27 | 30.7 | 2.38 µM and 3.55 µM |  | GI50 (M19-MEL melanoma): 28.1 µM; GI50 (DMS 114 small cell lung): 2.81 µM; GI50 (DLD-1 colon): 15.7 µM; GI50 (HOP-18 NSCLC): 4.06 µM and 10.3 µM; GI50 (DMS 273 small cell lung): 10.3 µM; GI50 (LXFL 529 NSCLC): 0.488 µM and 1.09 µM
6 | C=C(C)C(=O)O[C@@H]1C[C@@]2(C)O[C@@H]2C[C@H](O)/C(C)=C/[C@H]2OC(=O)C(=C)[C@@H]21 | > 100 |  |  |  |  |  |  |  | 
7 | CCOC(=O)C1Sc2ccccc2N=C1C (stereo unspecified) |  | > 100 | > 100 | > 100 | > 100 |  | > 100 µM | > 100 | 
8 | [O-][Cl+3]([O-])([O-])[O-].[O]=[Ru]=[O].c1ccc(-c2ccccn2)nc1.c1ccc(-c2ccccn2)nc1 |  | > 100 | 61.2 | > 100 | > 100 | > 100 | > 100 µM |  | GI50 (M19-MEL melanoma): > 100 µM; GI50 (DMS 114 small cell lung): 21.9 µM; GI50 (DLD-1 colon): > 100 µM; GI50 (HOP-18 NSCLC): > 100 µM; GI50 (DMS 273 small cell lung): 22.4 µM; GI50 (LXFL 529 NSCLC): 41.3 µM
9 | Clc1ccc2cccc3c2c1C1OC3c2ccccc21 (stereo unspecified) |  | > 100 | > 100 | > 100 | > 100 | > 100 | > 100 µM | > 100 | 
10 | Nc1nc2[nH]cc(CCc3ccc(C(=O)N[C@@H](CCC(=O)O)C(=O)O)cc3)c2c(=O)[nH]1 | > 100 |  |  |  |  |  |  |  | 
11 | CC(=O)Nc1cc2ccc(=O)oc2cc1Cl | > 100 |  |  |  |  |  |  |  | 
12 | CCC(C)SC1SCC2C(=O)N(C)C3(CC3C)C(=O)OCC(NC(=O)c3nc4ccccc4cc3O)C(=O)NC(C)C(=O)N(C)C1C(=O)N(C)C1(CC1C)C(=O)OCC(NC(=O)c1nc3ccccc3cc1O)C(=O)NC(C)C(=O)N2C (stereo unspecified) | 0.000162 | 0.000236 | 0.000279 | 0.0732 | 24.1 | 0.000123 | 0.791 µM | 0.000434 | TGI (RXF-631 renal): 1.22 µM
13 | O=C1C(C(Nc2ccccc2)c2ccccc2)=C([O-])c2ccccc21.O=C1C(C(Nc2ccccc2)c2ccccc2)=C([O-])c2ccccc21.[Cu+2] (stereo unspecified) |  | > 100 |  | > 100 | > 100 | > 100 |  |  | GI50 (M19-MEL melanoma): > 100 µM; GI50 (DLD-1 colon): 34.6 µM; GI50 (HOP-18 NSCLC): > 100 µM; GI50 (DMS 273 small cell lung): 26.3 µM
14 | O=c1c2cccnc2ncn1CCN1CCCCC1 |  | > 100 | > 100 | > 100 |  | > 100 | > 100 µM | > 100 | 
15 | CN(C)CC1CCCC/C1=N/O (stereo unspecified) |  | > 100 | > 100 | > 100 | > 100 | > 100 | > 100 µM |  | TGI (RXF-631 renal): > 100 µM
16 | COc1ccc(/C=C/COC(C)=O)cc1OC |  | > 100 | > 100 |  |  | > 100 | > 100 µM |  | 
17 | CN(C)C=Nc1nc(=O)n(C2CCC(CO)O2)cc1F (stereo unspecified) |  |  |  | > 100 | > 100 | > 100 | > 100 µM | > 100 | 

Row | Structure (SMILES) | TGI (MDA-N) [µM] | TGI (M19-MEL melanoma) [µM] | TGI (DMS 114 small cell lung) [µM] | TGI (DLD-1 colon) [µM] | TGI (HOP-18 NSCLC) [µM] | TGI (DMS 273 small cell lung) [µM] | TGI (LXFL 529 NSCLC) | TGI (XF 498 CNS) [µM] | further results
18 | O=C1CSC(=S)N1/N=C/c1ccc(Cl)c([N+](=O)[O-])c1 | 52.6 |  |  |  |  |  |  |  | 
19 | Cc1nc(-c2nc(C)c(C(=O)NNC(=O)C[n+]3ccccc3)s2)sc1C(=O)NNC(=O)C[n+]1ccccc1 |  | > 100 | > 100 | > 100 |  |  | > 100 µM |  | 
20 | CCOc1ccc(NC2=CC(=O)C(=O)c3ccccc32)cc1 | 3.94 | 2.03 | 3.71 | 21.7 | 4.61 | 8.01 | 11.2 µM | 5.31 | 
21 | CC(=O)OC1(C)N=NC2(CCCCC2)O1 (stereo unspecified) | > 100 |  |  |  |  |  |  |  | 
22 | COC1=CC(=O)C(C2(OC(C)C)OC(=O)C(Cl)=C2Cl)=CC1=O (stereo unspecified) | > 100 |  |  |  |  |  |  |  | 
23 | O=C(O)CSc1n[nH]c(-c2ccccc2O)n1 |  | > 100 | > 100 | > 100 |  | > 100 | > 100 µM | > 100 | TGI (RXF-631 renal): > 100 µM
24 | CCCOc1nc(N)c2cnn(C3CCCCO3)c2n1 (stereo unspecified) |  | > 100 | > 100 | > 100 | > 100 | > 100 | > 100 µM |  | 
25 | CN(C)C(=S)/N=c1\ssc(=S)n1C1CCCCC1 |  | > 100 | 50.5 | 58.2 | > 100 | > 100 | 75.6 µM | 59.3 | TGI (RXF-631 renal): 40.8 µM
26 | O=S1C(=c2ccc(=C3Sc4ccccc4S3)cc2)Sc2ccccc21 (stereo unspecified) |  | 38.3 | > 56.4 | > 93.3 | > 100 | 37.1 | > 100 µM |  | 
27 | Br[Se]c1ccccn1 | 32.2 |  |  |  |  |  |  |  | 
28 | Cc1ccc(S(=O)(=O)N2CCC2c2ccccc2)cc1 (stereo unspecified) |  | > 100 | > 100 |  | > 100 | > 100 |  | > 100 | 
29 | O=c1[nH]c(-c2ccccc2)nc2cc(Cl)ccc12 |  | > 100 | > 100 | > 100 |  | > 100 | > 100 µM | > 100 | TGI (RXF-631 renal): > 100 µM
30 | COc1c(CC(C)=O)ccc2c1C(=O)c1ccc(C=O)c(OC(C)=O)c1C2=O |  |  | 33.2 | 14.3 | 40.6 | 24.5 | 19.4 µM |  | TGI (RXF-631 renal): 47.8 µM
31 | CN(C)CC1CCC/C1=N/OC(=O)c1ccccc1 (stereo unspecified) |  | > 100 | > 100 | > 100 | > 100 | > 100 | > 100 µM |  | TGI (RXF-631 renal): > 100 µM
32 | COc1ccc2c(c1)[n+]([O-])c(C(N)=O)c(N)[n+]2[O-] |  | > 100 | 98.8 | > 100 | > 100 | > 100 | > 100 µM |  | TGI (RXF-631 renal): > 100 µM
33 | O=C(NC1C=CCC2C(=O)N(c3ccccc3)C(=O)C12)OCc1ccccc1 (stereo unspecified) |  | > 100 |  | > 100 | > 100 | > 100 | > 100 µM | > 100 | 
34 | C[C@@H]1CC[C@H]2C(C)(C)[C@H]3C[C@@]12CC[C@@]3(C)O | > 100 |  |  |  |  |  |  |  | 
